40 compounds from patent US11203601B2, “Tricyclic compounds as glycogen synthase kinase 3 (GSK3) inhibitors and uses thereof” (The Broad Institute, Inc., priority 2017, dated 2021) can be followed below.

In one data set the test system is MDR1. Put plainly: MDR1/MDCK assay (Example 4). The data set is classed as in vitro ADME. The note with it: dog, MDCK-MDR1; for Papp A→B at 120 min, 5 μM / Papp B→A at 120 min, 5 μM: pH 7.4, 120 minutes; for efflux ratio at 120 min, 5 μM: (Papp B to A)/(Papp A to B). How it is done: The MDR1/MDCK assay is run at Absorption Systems. This assay is used to determine the blood-brain barrier (BBB) penetration potential of a test compound using MDR1-MDCK cell monolayers. Catalog number EA203.
Substrate • Test compound at 5 μM in HBSSg with maximum DMSO concentration not greater than 1%. Assay System • Confluent monolayers of MDR1-MDCK cells, 7 to 11 days old. Assay Conditions • Receiver well with 1% BSA in modified Hanks buffer (HBSSg) • Apical and basolateral side at pH 7.4 • Dose two monolayers in each direction (N=2) • Dose apical side for (A to B) assessment • Dose basolateral side for (B to A) assessment • Sample both apical and basolateral sides at 120 minutes • Determine the concentrations of test compound using a generic LC-MS/MS method with a minimum 4 point calibration curve. Assay QC • The quality of the cell monolayer batch is verified using control compounds before monolayers are released for use • The quality of each monolayer used in the assay is verified by a TEER measurement and by calculating the Papp for a control compound. Solubility (SOL) 1% DMSO in PBS

Data set [1] addresses T1, GSK3β (Homo sapiens (Human), UniProt P49841). Nature of the data set: Mobility shift microfluidics assay. The data set is classed as biochemical. As to conditions: 4.3 μM ATP, 60 minutes at room temperature.
Experimental: (§6) Reactions were terminated by the addition of 10 mM ethylenediaminetetraacetic acid (EDTA). Substrate and product were separated electrophoretically, and fluorescence intensity of the substrate and product was determined by Labchip EZ Reader II (Caliper Life Sciences). The kinase activity was measured as percent conversion. The reactions were performed in duplicate for each sample. […] The results were analyzed by Genedata Assay Analyzer. The percent inhibition was plotted against the compound concentration, and the IC50 value was determined from the logistic dose-response curve fitting. Values are the average of at least three experiments.
Data set [2] deals with T2, GSK3α (Homo sapiens (Human), UniProt P49840). Put plainly: Mobility shift microfluidics assay. The class given is biochemical.
T2 sequence (P49840 whole entry): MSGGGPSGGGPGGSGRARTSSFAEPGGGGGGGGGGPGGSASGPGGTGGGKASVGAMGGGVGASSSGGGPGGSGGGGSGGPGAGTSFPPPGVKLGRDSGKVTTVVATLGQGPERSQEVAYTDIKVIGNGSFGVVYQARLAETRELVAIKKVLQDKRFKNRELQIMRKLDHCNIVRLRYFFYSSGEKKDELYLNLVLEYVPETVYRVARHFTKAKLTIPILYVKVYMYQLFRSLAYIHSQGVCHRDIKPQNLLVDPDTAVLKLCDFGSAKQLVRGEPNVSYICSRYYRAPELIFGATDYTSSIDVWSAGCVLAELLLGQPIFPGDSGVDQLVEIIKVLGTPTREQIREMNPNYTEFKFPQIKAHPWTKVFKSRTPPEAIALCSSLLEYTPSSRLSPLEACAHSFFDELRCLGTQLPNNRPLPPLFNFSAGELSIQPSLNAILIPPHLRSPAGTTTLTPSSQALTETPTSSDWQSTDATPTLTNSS
Experimental: as §6
In data set [3] the target is T1, GSK3β. Put plainly: GSK3 beta biochemical assay (TR-FRET).
Experimental: (§7) 1 nM enzyme, 200 nM biotinylated peptide
(§8) 4 μM ATP (GSK3 alpha) or 2 μM ATP (GSK3 beta)
(§9) The reaction volume is 10 μL, and the final percent DMSO is 1%. The total volume of DMSO is therefore 100 nL. It is critical that the percentage of DMSO be controlled and consistent across the plate. […] The High control is with all assay components but no inhibitor, the low control is with all assay components but no enzyme.
(§10) Make 2× detection reagents in Invitrogen TR-FRET detection buffer for final 20 nM Strepavidin-d2, 1 nM Tb^2+-pSer641 antibody (using 20 μl as final volume). 2× detection=40 nM Strepavidin-d2, 2 nM Tb^2+-pSer641 antibody.
(§11) XLFit is used for results which are archived into a database. The data is normalized as a percentage of uninhibited control minus max inhibited controls.
The target in data set [4] is T2, GSK3α. Nature of the data set: GSK3 alpha biochemical assay (TR-FRET).
Experimental: as §7, §8, §9, §10, §11
Data set [5] in a line: Liver microsomal stability, human. The data set is classed as in vitro ADME. As to conditions: 1 μM, 60 minutes at 37° C. Here is the method: (§1) Stability of compound in liver microsomes was tested in duplicate by incubating compound at 1 μM for 60 minutes at 37° C. Compound level at 60 minutes was compared to level at 0 minutes, and percent remaining was calculated. Order by selecting Microsomal Stability in Prometheus, checking boxes for desired species.
(§2) Available species: human, mouse (CD-1), and rat (Sprague-Dawley). Compound requirements: 5 μL of a 10 mM DMSO solution. Incubation time: 60 minutes at 37° C. Test Concentration: 1 μM.
(§3) Microsomes with NADPH without compound-matrix interference. Microsomes plus compound without NADPH-non-enzymatic instability.

Data set [6] can be described thus: Liver microsomal stability, mouse. The data set is classed as in vitro ADME, mouse (CD-1). The note with it: 1 μM, 60 minutes at 37° C. How it is done:
as §1, §2, §3

A further data set in a line: Plasma stability, mouse. The data set is classed as in vitro ADME, mouse (CD-1). How it is done: (§4) Stability of compound in plasma was tested in duplicate by incubating compound at 5 μM for 5 hours at 37° C. Compound level at 5 hours was compared to level at 0 hours, and percent remaining was calculated. Binding to plasma proteins was tested in duplicate by incubating compound in plasma at 5 μM for 5 hours at 37° C. in the Rapid Equilibrium Dialysis (RED) Device. Compound level in plasma compartment was compared to compound level in buffer compartment to calculate percent bound. Order by selecting Plasma Stability and Plasma Protein Binding in Prometheus, checking boxes for desired species.
(§5) Available species: human, mouse (CD-1), and rat (Sprague-Dawley). Compound requirements: 15 μL of a 10 mM DMSO solution. Incubation time: 5 hours at 37° C. Test Concentration: 5 μM.

The next data set can be described thus: Solubility in PBS. As to conditions: 23 °C, aqueous buffer, thermodynamic from solid.
A further data set in a line: Plasma stability, human. As to conditions: human plasma, 5 μM, 5 hours at 37° C. The class given is in vitro ADME. Here is the method: as §4, §5
Setting [7] is: GSK3β TR-FRET BIOCHEMICAL (TR-FRET) GMean IC50, 2 μM ATP (Km), 100 min at room temperature.
Where [8] appears, read: GSK3α TR-FRET BIOCHEMICAL (TR-FRET) GMean IC50, 4 μM ATP (Km), 100 min at room temperature.

The structures appear in SMILES notation. A value given as a limit tells only on which side of the number the result lay.

T1 sequence (P49841 whole entry): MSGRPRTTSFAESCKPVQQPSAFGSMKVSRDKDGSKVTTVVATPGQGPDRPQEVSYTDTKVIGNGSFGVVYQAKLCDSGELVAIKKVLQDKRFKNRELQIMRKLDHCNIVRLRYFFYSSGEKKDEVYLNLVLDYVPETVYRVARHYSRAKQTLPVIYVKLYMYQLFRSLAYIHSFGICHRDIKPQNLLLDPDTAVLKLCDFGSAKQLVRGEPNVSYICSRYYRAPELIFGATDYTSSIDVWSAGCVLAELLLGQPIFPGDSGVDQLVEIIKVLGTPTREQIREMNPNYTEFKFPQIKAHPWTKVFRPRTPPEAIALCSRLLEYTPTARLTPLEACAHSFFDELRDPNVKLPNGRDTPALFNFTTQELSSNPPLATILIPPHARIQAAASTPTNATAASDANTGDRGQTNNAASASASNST
Experimental for Solubility in PBS: Solubility of compound was tested in triplicate by diluting a 10 mM DMSO solution with PBS. Maximum concentration of compound in solution was 100 μM.
Solubility of compound was tested in triplicate by drying down a 10 mM DMSO solution and then attempting to reconstitute in 100% PBS. Maximum concentration of compound in solution was 500 μM.
Compound requirements (1% DMSO in PBS): 30 μL of a 10 mM DMSO solution. Compound requirements (PBS-only): 60 μL of a 10 mM DMSO solution. Equilibration time: 18 hours at room temperature.

For the compound `CC[C@@]1(c2ccccc2)C2=C(CC(C)(C)CC2=O)Nc2n[nH]cc21` [drawing 184], in the data set with MDR1, the Papp A→B at 120 min, 5 μM is 12.6 nm/s and the Papp B→A at 120 min, 5 μM turned out to be 577 nm/s.
With `CC[C@]1(c2ccccc2)C2=C(CC(C)(C)CC2=O)Nc2ncsc21`, the IC50 at GSK3β [1] and on GSK3α [2] was above 30 µM each time.
Take `CCC1(c2ccccc2)C2=C(CC(C)(C)CC2=O)Nc2ncsc21` (single isomer, unassigned) [Compound 1-E1, 9-Ethyl-6,6-dimethyl-9-phenyl-5,6,7,9-tetrahydrothiazolo[4,5-b]quinolin-8(4H)-one]: the IC50 against GSK3β [3] (setting [7]) and against GSK3α [4] (setting [8]) was above 5 µM in each case.
With `CCC1(c2ccccc2)C2=C(CCC(C)(C)C2=O)Nc2ncsc21` (stereo not drawn) [Compound 3], the IC50 against GSK3β [3] stood at 0.951 µM; against GSK3α [4] it was 0.254 µM.
The like results for `CCC1(c2ccccc2)C2=C(Nc3ncsc31)C(C)(C)CCC2=O` (stereo not drawn) [Compound 4] were, in that order, 0.627 µM and 0.174 µM.
On to `CCC1(c2cccc(Br)c2)C2=C(CC(C)(C)CC2=O)Nc2ncsc21` (stereo not drawn) [Compound 14], for which the IC50 at GSK3β [3] amounted to 0.234 µM; on GSK3α [4], 0.041 µM.
With `CC[C@]1(c2cccc(F)c2)C2=C(CC(C)(C)CC2=O)Nc2ncsc21` (single isomer, unassigned), the half-inhibitory concentration (IC50) on GSK3β [1] and at GSK3α [2] was above 30 µM in each case.
As to `CC[C@@]1(c2cccc(F)c2)C2=C(CC(C)(C)CC2=O)Nc2ncsc21` [drawing 159], the IC50 on GSK3β [1] stood at 2.27 µM; at GSK3α [2], 0.599 µM.
Turning to `CC1(C)CC(=O)C2=C(C1)Nc1ncsc1C21CCCCc2ccccc21` (stereo not drawn) [Compound 17], the IC50 against GSK3β [3] and on GSK3α [4] was above 5 µM each time.
In the case of `CC[C@@]1(c2ccccc2)C2=C(CC(C)(C)CC2=O)Nc2ncsc21` [drawing 182], in the data set on MDR1, the Papp A→B at 120 min, 5 μM stood at 242 nm/s; the basolateral-to-apical permeability (Papp B→A) at 120 min, 5 μM came out at 621 nm/s; the efflux ratio at 120 min, 5 μM turned out to be 2.6.
For `CC[C@@]1(c2ccccc2)C2=C(CC3(CCCCC3)CC2=O)Nc2ncsc21`, the IC50 at GSK3β [1] was 0.447 µM; at GSK3α [2] it was 0.155 µM.
As for `CC[C@]1(c2cccc(OC)c2)C2=C(CC(C)(C)CC2=O)Nc2ncsc21`, the results for the IC50 at GSK3β [1] and at GSK3α [2] were 10.5 µM and 10.6 µM, respectively.
Turning to `[2H]c1nc2c(s1)C(CC)(c1ccccc1)C1=C(CC(C)(C)CC1=O)N2` (stereo not drawn) [Compound 18], the IC50 against GSK3β [3] (setting [7]) was 0.5 µM; on GSK3α [4] (setting [8]), 0.118 µM.
As for `CCC1(c2ccccc2)C2=C(Nc3ncsc31)C(C)CC(C)C2=O` (stereo not drawn) [Compound 2], the half-maximal inhibitory concentration (IC50) against GSK3β [3] is 0.353 µM; on GSK3α [4], 0.13 µM.
Take `CC[C@@]1(c2cccc(C)c2)C2=C(CC(C)(C)CC2=O)Nc2ncsc21` [drawing 163]: the results for the IC50 at GSK3β [1] and on GSK3α [2] were 0.245 µM and 0.069 µM, respectively.
Regarding `CCC1(c2ccccc2)C2=C(CC(CC(C)C)CC2=O)Nc2ncsc21` (stereo not drawn) [Compound 10], the IC50 against GSK3β [3] turned out to be 0.644 µM; against GSK3α [4], 0.189 µM.
With `CC1(C)CC(=O)C2=C(C1)Nc1ncsc1[C@@]2(C)c1cccc(F)c1`, the half-inhibitory concentration (IC50) on GSK3β [1] amounted to 12.5 µM; on GSK3α [2], 6.23 µM.
Consider `CCC1(c2ccccc2)C2=C(CC(C)(C)CC2=O)Nc2nc(C)sc21` (stereo not drawn) [Compound 15], for which the IC50 against GSK3β [3] and on GSK3α [4] was above 5 µM in each case.
In the data set on MDR1, `Cc1c[nH]c(-c2cnc(NCCNc3ccc(C#N)cn3)nc2-c2ccc(Cl)cc2Cl)n1` [drawing 185] registered an apical-to-basolateral permeability (Papp A→B) at 120 min, 5 μM of 65 nm/s and a Papp B→A at 120 min, 5 μM of 642 nm/s.
In the case of `CCC1(c2ccccc2)C2=C(CCCC2=O)Nc2ncsc21` (stereo not drawn) [Compound 11], the IC50 on GSK3β [3] is above 1.67 µM; on GSK3α [4] it was 0.419 µM.
As to `CC[C@@]1(c2cccc(Cl)c2)C2=C(CC(C)(C)CC2=O)Nc2ncsc21` (single isomer, unassigned), the 50% inhibitory concentration (IC50) on GSK3β [1] came out at 1.18 µM; at GSK3α [2], 0.293 µM.
`CC1(C)CC(=O)C2=C(C1)Nc1ncsc1C21CCCc2ccccc21` (stereo not drawn) [Compound 16]: the half-inhibitory concentration (IC50) on GSK3β [3] and against GSK3α [4] was above 5 µM throughout.
`CCC1CC(=O)C2=C(C1)Nc1ncsc1C2(CC)c1ccccc1` (stereo not drawn) [Compound 7]: the IC50 on GSK3β [3] was 0.592 µM; against GSK3α [4], 0.171 µM.
Consider `CC[C@]1(c2ccccc2)C2=C(CC3(CCCCC3)CC2=O)Nc2ncsc21`, for which the IC50 on GSK3β [1] was 1.89 µM; at GSK3α [2], 3.66 µM.
Take `CC[C@]1(c2cccc(Cl)c2)C2=C(CC(C)(C)CC2=O)Nc2ncsc21` (single isomer, unassigned): the IC50 at GSK3β [1] and at GSK3α [2] was above 30 µM in each case.
For the compound `CCC1(c2ccccc2)C2=C(CC(C)(C)CC2=O)Nc2nc(Cl)sc21` (stereo not drawn) [Compound 19], the IC50 is 4.35 µM against GSK3β [3] and 1.99 µM on GSK3α [4].
`CC1(C)CC(=O)C2=C(C1)Nc1ncsc1[C@]2(C)c1ccccc1` [drawing 181]: in the data set with MDR1, the Papp A→B at 120 min, 5 μM is 284 nm/s; the Papp B→A at 120 min, 5 μM is 628 nm/s; the efflux ratio at 120 min, 5 μM is 2.2.
For `CCC1(c2ccccc2)C2=C(CC3(CCCC3)CC2=O)Nc2ncsc21` (stereo not drawn) [Compound 5], the IC50 against GSK3β [3] amounted to 0.366 µM; on GSK3α [4] it was 0.08 µM.
With `CCC1(c2ccccc2)C2=C(CC(C(C)C)CC2=O)Nc2ncsc21` (stereo not drawn) [Compound 8], the results for the IC50 at GSK3β [3] and against GSK3α [4] were 0.927 µM and 0.365 µM, respectively.
On to `CC1(C)CC(=O)C2=C(C1)Nc1ncsc1[C@]2(C)c1ccccc1` [drawing 153], for which the 50% inhibitory concentration (IC50) at GSK3β [1] turned out to be 0.384 µM; on GSK3α [2], 0.238 µM.
As to `CCC1(c2ccc(C)cc2)C2=C(CC(C)(C)CC2=O)Nc2ncsc21` (stereo not drawn) [Compound 13], the half-inhibitory concentration (IC50) against GSK3β [3] was 0.619 µM; against GSK3α [4] it was 0.187 µM.
In the case of `CC1(C)CC(=O)C2=C(C1)Nc1ncsc1[C@@]2(C)c1ccccc1`, the IC50 came to 28.6 µM at GSK3β [1] and 18.5 µM at GSK3α [2].
In the data set with MDR1, `CC1(C)CC(=O)C2=C(C1)Nc1n[nH]cc1[C@]2(C)c1ccccc1` [drawing 183] had a Papp A→B at 120 min, 5 μM of 18.2 nm/s and a Papp B→A at 120 min, 5 μM of 661 nm/s.
With `CC[C@@]1(c2ccccc2)C2=C(CC(C)(C)CC2=O)Nc2ncsc21` [drawing 157], the results for the IC50 on GSK3β [1] and on GSK3α [2] were 0.065 µM and 0.014 µM, respectively.
The like results for `CC1(C)CC(=O)C2=C(C1)Nc1ncsc1[C@]2(C)c1cccc(F)c1` were, in that order, 0.455 µM and 0.203 µM.
As for `CCCC1CC(=O)C2=C(C1)Nc1ncsc1C2(CC)c1ccccc1` (stereo not drawn) [Compound 9], the IC50 against GSK3β [3] is 0.418 µM; at GSK3α [4], 0.184 µM.
As for `CC[C@@]1(c2ccccc2)C2=C(CC(C)(C)CC2=O)Nc2n[nH]cc21` [drawing 170], at GSK3β [1], the half-inhibitory concentration (IC50) stood at 0.507 µM.
As for `CC[C@@]1(c2cccc(OC)c2)C2=C(CC(C)(C)CC2=O)Nc2ncsc21` (single isomer, unassigned), the IC50 was 0.11 µM at GSK3β [1] and 0.024 µM at GSK3α [2].
Consider `CC1(C)CC(=O)C2=C(C1)Nc1n[nH]cc1[C@]2(C)c1ccccc1` [drawing 178], for which the “Human Liver Microsomal Stability, % remaining” value in data set [5] is 100%. In data set [6], the “Mouse Liver Microsomal Stability, % remaining” value is given as 100%. Besides, in the data set “Plasma stability, mouse”, the “Plasma Stability (Mouse, % remaining)” value is reported as 96.6%. This compound had a solubility (thermodynamic) at 18 h in the data set “Solubility in PBS” above 500 µM. Further, the “Plasma Stability (Human, % remaining)” value in “Plasma stability, human” was 100%.
`CCC1(c2ccccc2)C2=C(CC(C)CC2=O)Nc2ncsc21` (stereo not drawn) [Compound 6]: the half-maximal inhibitory concentration (IC50) against GSK3β [3] was found to be 0.684 µM; against GSK3α [4], 0.194 µM.
